Laboratory results: publication PMC9127750, “Structure-based design of CDC42 effector interaction inhibitors for the treatment of cancer” (Cell reports, 2022)
Where “and” joins values, the source holds several entries; their conditions need not be identical. Identical values can stand only once.

Test system: WM3248 melanoma cells, 486 antibodies
Test: Reverse phase protein arrays (RPPA)
Type: cell-based, Human
Description: Pellets were snap frozen in liquid nitrogen and shipped to MD Anderson Cancer Center core RPPA facility for RPPA analysis (Table S5). Three biological replicates for each sample were generated.
Nomenclatures on the RPPA heatmaps: name_of_antibody.species_of_antibody.status_of_antibody. V - antibody validated; C - validation of antibody in progress; Q - antibody nonspecific; E – under evaluation; antibodies raised in M - mouse, G - goat, R - rabbit, or T - rat.

Q: With `CN(C)c1cccc(Nc2cc(-c3ccccc3)nc(C3CCNCC3)n2)c1` [ARN22089, N1,N1-dimethyl-N3-(6-phenyl-2-(piperidin-4-yl)pyrimidin-4-yl)benzene-1,3-diamine] as the compound, how does the “Merlin.R.C Norm_20 Average” value (level 20 vs 0) read?
A: 1.326

Q: What about the “Midkine.R.V Norm_20 Average” value (level 20 vs 0) of the same compound?
A: 0.903

Q: What about the “Mitofusin.1.R.V Norm_20 Average” value (level 20 vs 0) of the same compound?
A: 0.924

Q: What about the “Mitofusin.2.R.V Norm_20 Average” value (level 20 vs 0) of the same compound?
A: 0.929

Q: And the “Mnk1.R.V Norm_20 Average” value (level 20 vs 0)?
A: 0.909

Q: And the “mTOR.R.V Norm_20 Average” value (level 20 vs 0)?
A: 0.966

Q: And the “mTOR_pS2448.R.C Norm_20 Average” value (level 20 vs 0)?
A: 0.981

Q: What about the “HLA.DQA1.R.V Norm_20” value (level 20 vs 0, replicates) of the same compound?
A: 0.920

Q: And the “HLA.DR.DP.DQ.DX.R.C Norm_20” value (level 20 vs 0, replicates)?
A: 1.294 and 1.162

Q: And the “HMHA1.R.V Norm_20” value (level 20 vs 0, replicates)?
A: 0.981 and 0.880 and 1.188

Q: What about the “HNRNPK.R.V Norm_20” value (level 20 vs 0, replicates) of the same compound?
A: 0.984 and 1.119 and 0.871

Q: And the “HSP27.M.C Norm_20” value (level 20 vs 0, replicates)?
A: 0.670 and 0.856 and 0.906

Q: And the “HSP27_pS82.R.V Norm_20” value (level 20 vs 0, replicates)?
A: 0.842 and 0.885 and 1.155

Q: What about the “HSP60.R.V Norm_20” value (level 20 vs 0, replicates) of the same compound?
A: 1.130 and 0.832 and 1.026

Q: What about the “HSP70.R.C Norm_20” value (level 20 vs 0, replicates) of the same compound?
A: 1.062 and 1.459

Q: What about the “Hexokinase.I.R.C Norm_20” value (level 20 vs 0, replicates) of the same compound?
A: 1.110 and 1.189 and 1.305

Q: And the “Hexokinase.II.R.V Norm_20” value (level 20 vs 0, replicates)?
A: 1.291 and 0.878 and 1.104

Q: And the “Hif.1αR.C Norm_20” value (level 20 vs 0, replicates)?
A: 1.195 and 0.879 and 1.078

Q: And the “Histone.H3.R.V Norm_20” value (level 20 vs 0, replicates)?
A: 1.827 and 15.369 and 0.615

Q: What about the “Histone.H3_pS10.R.V Norm_20” value (level 20 vs 0, replicates) of the same compound?
A: 1.077 and 5.500 and 0.823

Q: And the “IDO.R.C Norm_20” value (level 20 vs 0, replicates)?
A: 0.970 and 0.836

Q: And the “IGF1R_pY1135_Y1136.R.V Norm_20” value (level 20 vs 0, replicates)?
A: 1.013 and 0.925

Q: What about the “IGFBP2.R.V Norm_20” value (level 20 vs 0, replicates) of the same compound?
A: 1.100 and 0.958 and 1.153

Q: What about the “IGFBP3.M.V Norm_20” value (level 20 vs 0, replicates) of the same compound?
A: 0.795 and 0.982

Q: What about the “IGFRb.R.C Norm_20” value (level 20 vs 0, replicates) of the same compound?
A: 1.223 and 1.234

Q: And the “IL.6.R.C Norm_20” value (level 20 vs 0, replicates)?
A: 0.955 (2×) and 1.003

Q: And the “IMP3.R.C Norm_20” value (level 20 vs 0, replicates)?
A: 0.919 and 1.030 and 0.952

Q: And the “INPP4b.R.C Norm_20” value (level 20 vs 0, replicates)?
A: 0.903 and 0.986

Q: And the “IR.b.R.C Norm_20” value (level 20 vs 0, replicates)?
A: 1.018 and 0.967 and 1.220

Q: And the “IRF.1.R.V Norm_20” value (level 20 vs 0, replicates)?
A: 0.991 and 0.831 and 1.052

Q: What about the “IRF.3.R.V Norm_20” value (level 20 vs 0, replicates) of the same compound?
A: 0.860 and 0.878 and 0.910

Q: What about the “IRS1.R.V Norm_20” value (level 20 vs 0, replicates) of the same compound?
A: 1.064 and 1.027 and 1.060

Q: What about the “IRS2.R.C Norm_20” value (level 20 vs 0, replicates) of the same compound?
A: 1.529 and 1.065

Q: What about the “JAB1.M.C Norm_20” value (level 20 vs 0, replicates) of the same compound?
A: 0.904 and 0.945 and 1.061

Q: What about the “JNK2.R.V Norm_20” value (level 20 vs 0, replicates) of the same compound?
A: 0.750 and 1.506

Q: What about the “JNK_pT183_Y185.R.C Norm_20” value (level 20 vs 0, replicates) of the same compound?
A: 1.059 and 0.941 and 1.008

Q: And the “Jagged1.R.V Norm_20” value (level 20 vs 0, replicates)?
A: 1.035 and 0.964 and 1.085

Q: And the “Jak2.R.V Norm_20” value (level 20 vs 0, replicates)?
A: 1.132 and 0.972 and 1.009

Q: And the “KAP1.R.V Norm_20” value (level 20 vs 0, replicates)?
A: 1.259 and 0.970 and 1.549

Q: What about the “KEAP1.R.V Norm_20” value (level 20 vs 0, replicates) of the same compound?
A: 1.169 and 0.932 and 0.897

Q: What about the “LAD1.R.V Norm_20” value (level 20 vs 0, replicates) of the same compound?
A: 0.881 and 0.761 and 1.249

Q: What about the “LC3A.B.R.C Norm_20” value (level 20 vs 0, replicates) of the same compound?
A: 1.429 and 1.134 and 1.161

Q: What about the “LCN2.R.V Norm_20” value (level 20 vs 0, replicates) of the same compound?
A: 2.531 and 1.008 and 1.326

Q: And the “LDHA.R.C Norm_20” value (level 20 vs 0, replicates)?
A: 0.857 and 1.499 and 2.319

Q: What about the “LRP6_pS1490.R.V Norm_20” value (level 20 vs 0, replicates) of the same compound?
A: 1.001

Q: What about the “Lasu1.R.V Norm_20” value (level 20 vs 0, replicates) of the same compound?
A: 1.199 and 1.294

Q: And the “Lck.R.V Norm_20” value (level 20 vs 0, replicates)?
A: 1.370 and 1.163 and 1.379

Q: And the “Lyn.R.V Norm_20” value (level 20 vs 0, replicates)?
A: 0.892 and 1.140 and 1.052

Q: What about the “MACC1.R.V Norm_20” value (level 20 vs 0, replicates) of the same compound?
A: 0.920 and 0.933

Q: What about the “MAPK_pT202_Y204.R.C Norm_20” value (level 20 vs 0, replicates) of the same compound?
A: 0.833 and 0.402 and 0.466

Q: And the “MCT4.R.V Norm_20” value (level 20 vs 0, replicates)?
A: 1.030 and 0.799 and 1.149

Q: What about the “MDM2_pS166.R.V Norm_20” value (level 20 vs 0, replicates) of the same compound?
A: 1.426 and 1.478 and 1.290

Q: And the “MEK1.R.V Norm_20” value (level 20 vs 0, replicates)?
A: 1.117 and 2.580

Q: What about the “MEK1_pS217_S221.R.V Norm_20” value (level 20 vs 0, replicates) of the same compound?
A: 0.743 and 0.841 and 1.347

Q: What about the “MEK2.R.V Norm_20” value (level 20 vs 0, replicates) of the same compound?
A: 0.956 and 1.186

Q: What about the “MERIT40.R.C Norm_20” value (level 20 vs 0, replicates) of the same compound?
A: 0.841 and 0.749 and 1.150

Q: And the “MERIT40_pS29.R.V Norm_20” value (level 20 vs 0, replicates)?
A: 0.968 and 0.879 and 1.231

Q: What about the “METTL3.R.V Norm_20” value (level 20 vs 0, replicates) of the same compound?
A: 1.164 and 1.324 and 1.250

Q: What about the “MIF.R.C Norm_20” value (level 20 vs 0, replicates) of the same compound?
A: 0.869 and 0.900 and 0.906

Q: And the “MIG6.R.V Norm_20” value (level 20 vs 0, replicates)?
A: 0.893 and 0.926 and 0.901

Q: What about the “MITF.R.V Norm_20” value (level 20 vs 0, replicates) of the same compound?
A: 1.001 and 1.191 and 1.081

Q: And the “MLH1.M.V Norm_20” value (level 20 vs 0, replicates)?
A: 0.708 and 0.840 and 1.119

Q: And the “MLKL.R.V Norm_20” value (level 20 vs 0, replicates)?
A: 0.758 and 0.733

Q: And the “MMP2.R.V Norm_20” value (level 20 vs 0, replicates)?
A: 0.895 and 0.974 and 0.934

Q: What about the “MMP14.R.V Norm_20” value (level 20 vs 0, replicates) of the same compound?
A: 1.924 and 1.667 and 1.374

Q: What about the “MR1.M.C Norm_20” value (level 20 vs 0, replicates) of the same compound?
A: 0.871 and 1.118 and 0.973

Q: And the “MRAP.R.C Norm_20” value (level 20 vs 0, replicates)?
A: 1.035 and 1.214 and 1.082

Q: And the “MSH2.R.C Norm_20” value (level 20 vs 0, replicates)?
A: 0.839 and 0.919 and 1.059

Q: What about the “MSH6.R.C Norm_20” value (level 20 vs 0, replicates) of the same compound?
A: 1.343 and 1.387 and 1.258

Q: What about the “MSI2.R.C Norm_20” value (level 20 vs 0, replicates) of the same compound?
A: 1.362 and 1.019

Q: And the “MTCO1.M.V Norm_20” value (level 20 vs 0, replicates)?
A: 1.305 and 0.956 and 1.145

Q: What about the “MTSS1.M.C Norm_20” value (level 20 vs 0, replicates) of the same compound?
A: 0.841 and 1.006 and 0.964

Q: And the “Mcl.1.R.V Norm_20” value (level 20 vs 0, replicates)?
A: 0.748 and 0.609 and 0.905

Q: And the “MelanA.R.C Norm_20” value (level 20 vs 0, replicates)?
A: 1.030 and 0.993 and 1.051

Q: And the “Melanoma.gp100.R.C Norm_20” value (level 20 vs 0, replicates)?
A: 1.080 and 0.890

Q: What about the “Merlin.R.C Norm_20” value (level 20 vs 0, replicates) of the same compound?
A: 1.344 and 1.329 and 1.306

Q: And the “Midkine.R.V Norm_20” value (level 20 vs 0, replicates)?
A: 0.858 and 0.901

Q: And the “Mitofusin.1.R.V Norm_20” value (level 20 vs 0, replicates)?
A: 0.931 and 0.783 and 1.058

Q: And the “Mitofusin.2.R.V Norm_20” value (level 20 vs 0, replicates)?
A: 0.808 and 0.772 and 1.206

Q: What about the “Mnk1.R.V Norm_20” value (level 20 vs 0, replicates) of the same compound?
A: 0.936 and 0.820 and 0.972

Q: And the “mTOR.R.V Norm_20” value (level 20 vs 0, replicates)?
A: 0.878 and 0.940 and 1.079

Q: What about the “mTOR_pS2448.R.C Norm_20” value (level 20 vs 0, replicates) of the same compound?
A: 0.856 and 0.896 and 1.190
